Assay results as given in publication PMC7408493, “Implication of Opioid Receptors in the Antihypertensive Effect of a Novel Chicken Foot-Derived Peptide” (Biomolecules, 2020).
Ends that are not written are not given here.

Assay: Peptide presence in plasma after oral administration
Assay type: in vivo
Settings: Wistar rats, 10 mg/kg bw oral, plasma at 0, 30 and 60 min, pooled n = 6, SPE extraction, UHPLC-MS/MS (limit of detection 0.05 ppb) and UHPLC-HRMS
Method: Male Wistar rats (17–20 weeks-old, weighing between 230 and 250 g) were obtained from Charles River Laboratories (Barcelona, Spain). Animals were maintained in pairs, at 22 °C with light/dark cycles of 12 h and were fed standard chow diet (AO4, Panlab, Barcelona, Spain) ad libitum during all the experiment. Animals were randomly divided and administered tap water (control group, n = 6) or 10 mg/kg body weight (bw) peptide ([…] group, n = 6) by gastric intubation after starvation of 12 h. The total volume of water or […] orally administered to the rats was 1 mL. […]
Solid-phase extraction (SPE): Plasma samples (150 µL) were mixed with 25 µL of IFV*[…] […] Eluted samples were dried in a speed-vac concentrator (Thermo Fisher, Waltham, Massachusetts), USA), reconstituted in 100 µL of water (0.1 % FA and 0.1 % BSA), and analyzed by UHPLC-MS/MS. […]
The obtained purified solutions from plasma and peptide digests G60 and D60 and from AP and BL chambers in Caco-2 experiment were analyzed using a UHPLC 1290 Infinity II Series coupled to a QqQ 6490 Series (Agilent Technologies, Santa Clara, CA, USA) for tandem mass experiments or a qTOF 6550 Series (Agilent Technologies) for high-resolution mass spectrometry experiments. […]

AVFQHNCQE
Presence of peptide or fragments in plasma: neither the peptide nor their potential fragments were identified in the plasma samples
